Experimental data taken from US20240299448A1, “METHODS FOR PREVENTING AND TREATING CHRONIC PAIN” (priority 2023, published 2024).

Key:
Assay type in all cases: in vivo, mouse
[1] = tested on: CD-1 mice with plantar incision in the hind paw; assay: Plantar incision postoperative pain, von Frey mechanical sensitivity
Experimental: CD-1 mice were housed in conventional shoebox cages with 3-4 mice per cage, in temperature-controlled environment (20±1° C.), on a 12:12 h light/dark cycle, with ad libitum access to filtered water and chow (Envigo Teklad 2920x, irradiated). All mice underwent plantar incision in the right hind paw. Mice were anesthetized with 5% isoflurane at 2 L/min into a sealed induction chamber then maintained with 2.5% isoflurane at 500 mL/min through a nose cone. A 5-mm longitudinal incision was created, the flexor digitorum brevis muscle was elevated, and then a longitudinal incision was made through it. Two skin sutures closed the wound, and Polysporin antibiotic was applied. The mice were subcutaneously injected with either dexamethasone (DEXA; 0.5 mg/kg/day) or saline (PBS) once per day from the day before surgery to day 6 after surgery. Also, mice were administered 100 ug/kg/day (p.o.) of beraprost sodium, a PTGIR agonist, or saline from day 5 to 8 after plantar incision surgery. Mechanical sensitivity tests were performed using von Frey filaments (using the up-down method of Dixon) before and after the surgery on days 1, 7, 9, 14, 21 and 35. Mice were individually acclimated for at least 1 hour in transparent Plexiglas enclosures (5 cm×8.5 cm by 6 cm) before withdrawal thresholds were measured.

[2] = tested on: mice with chronic constriction injury (CCI) of the sciatic nerve; assay: Chronic constriction injury (CCI) neuropathic pain, von Frey mechanical paw-withdrawal threshold; settings: drug daily Day 0 to Day 6, vs saline
Experimental: Mice: CD-1 male and female mice aged 6-12 weeks (ICR:Crl, Charles River, St. Constant, QC) were used in these experiments. All mice were housed in standard shoebox cages with 2-4 (same-sex) per cage in a light (14:10 h, lights on at 07:00 h) and temperature-controlled (20±1° C.) environment with ad libidum access to food (Harlan Teklad 8604) and tap water. Mice were acclimated to the vivarium for 7 days post-arrival and before testing. Each mouse was used in a single drug experiment. Equal numbers of male and female mice were included in each cohort. Drugs: Dexamethasone (PromoCell, Heidelberg, Germany) was administered via daily subcutaneous injections at a dosage of 0.5 mg/kg/day. […] Before and after all injuries, mechanical paw-withdrawal threshold was measured with von Frey filaments using the up-down staircase method of Dixon (Chaplan et al., 1994), as previously described (Mogil et al., 2006). […] To quantify the acute effects of drugs on mechanical thresholds during drug exposure (on Day 4-6 after CCI or CFA), the percentage of maximum possible allodynia was quantified as: % allodynia=[(baseline threshold−post-drug threshold)/baseline threshold]×100. […] To quantify the duration of the entire CCI- or CFA-induced allodynic episode, the day-by-day mechanical thresholds of each subject was considered. […]

[3] = tested on: mice with hind paw injection of complete Freund's adjuvant (CFA); assay: CFA inflammatory pain, von Frey mechanical paw-withdrawal threshold; settings: for allodynia during the administration period after CFA / duration of the overall allodynia episode produced by CFA: drug daily Day 0 to Day 6, diclofenac 25, morphine 5, gabapentin 100 mg/kg/day i.p., lidocaine 2% 20 μl s.c. hind paw, vs saline; for development of allodynia after CFA in dexamethasone-treated mice: hind paw injection on Day 3 and Day 5, ipsilateral to CFA, with dexamethasone; for duration of CFA allodynia in the absence of dexamethasone / CFA-induced mechanical allodynia in the absence of dexamethasone: hind paw injection on day 3 and day 5, no dexamethasone; for CFA-induced mechanical allodynia in the absence of dexamethasone: day 6 or any other time point, vs vehicle
Experimental: Mice: CD-1 male and female mice aged 6-12 weeks (ICR:Crl, Charles River, St. Constant, QC) were used in these experiments. All mice were housed in standard shoebox cages with 2-4 (same-sex) per cage in a light (14:10 h, lights on at 07:00 h) and temperature-controlled (20±1° C.) environment with ad libidum access to food (Harlan Teklad 8604) and tap water. Mice were acclimated to the vivarium for 7 days post-arrival and before testing. Each mouse was used in a single drug experiment. Equal numbers of male and female mice were included in each cohort.
Drugs: Dexamethasone (PromoCell, Heidelberg, Germany) was administered via daily subcutaneous injections at a dosage of 0.5 mg/kg/day. Diclofenac, morphine, and gabapentin were administered via intraperitoneal (i.p.) injection at a dose of 25 mg/kg/day, 5 mg/kg/day, and 100 mg/kg/day, respectively. Lidocaine was administered via subcutaneous (s.c.) injection of 20 μl of 2% lidocaine into the plantar hind paw. All drugs other than dexamethasone were purchased from Sigma-Aldrich (St. Louis, MO, USA). Anti-Ly6G (BioX Cell [InVivoPlus anti-mouse Ly6G/Ly6C (Gr-1)]) and its isotype control (BioX Cell [InVivoPlus rat IgG2b isotype control, anti-keyhole limpet hemocyanin]) were injected at a dose of 125 μg/day. S100A8 and S100A9 were injected (10 μl) into the plantar surface of the inflamed (see below) hind paw at a dose of 1 μg/day.
Neutrophils: Neutrophils were isolated using the EasySep Mouse Neutrophil Enrichment kit (Stem Cell Technologies, Vancouver, Canada) as per manufacturer's instructions. Briefly, blood was collected by cardiac puncture in a 21-gauge needle coated with 10% EDTA and pooled from 2-3 mice in PBS/2 mM EDTA. Red blood cells were lysed after incubation in 0.83% NH4Cl for 10 min at 4° C., with the reaction stopped by adding PBS+10% FBS. Cells were centrifuged at 300 g for 5 min and resuspended in PBS+10% FBS. Cells were then incubated with rat serum and enrichment cocktail for 15 min at 4° C. and centrifuged at 300 g for 10 min. Cells were then resuspended in biotin selection cocktail for 15 min at 4° C., followed by magnetic beads for an additional 10 min, and placed into the separation magnet for 3 min. Non adherent cells were removed, and adherent cells washed off of the walls of the tube and resuspended in PBS for injection. Cells (5×10^6, in 10 μl) were injected into the plantar surface of the inflamed hind paw (see below) of mice within 30 min of isolation.
In most experiments, complete Freud's adjuvant (50% CFA, 20 μl volume) was injected into the plantar surface of the mouse's left hind paw as a model of inflammatory pain.
Before and after all injuries, mechanical paw-withdrawal threshold was measured with von Frey filaments using the up-down staircase method of Dixon (Chaplan et al., 1994), as previously described (Mogil et al., 2006). In every experiment, a baseline threshold determination was made on Day 1. Drugs or cells were administered daily from Day 0 to Day 6 (dexamethasone, diclofenac, gabapentin, lidocaine), on Day 3 and Day 5 (S100A8, S100A9, and neutrophils), or every other day from Day 0 to Day 20 (anti-Ly6G). von Frey testing on Day 6 occurred 1 hour after the drug injection on that day. Testing continued until both vehicle and drug groups had returned to their baseline statistically (with the exception of CFA+diclofenac), even though not all individual mice had necessarily recovered. Thus, in an attempt to minimize the duration that mice remained in pain, the length of experiments were different depending on the assay used and the purpose of the experiment, from 40 days post drug to 120 days post-drug.
Data analysis: Time course data of von Frey thresholds are shown graphically. To quantify the acute effects of drugs on mechanical thresholds during drug exposure (on Day 4-6 after CCI or CFA), the percentage of maximum possible allodynia was quantified as: % allodynia=[(baseline threshold−post-drug threshold)/baseline threshold]×100. […]

[4] = DEXA 0.5 mg/kg/day s.c. plus beraprost sodium 100 ug/kg/day p.o. day 5 to 8

Molecule: CC#CCC(C)[C@H](O)/C=C/[C@@H]1[C@H]2c3cccc(CCCC(=O)O)c3O[C@H]2C[C@H]1O (mixture of isomers) [beraprost, beraprost sodium]
- long-lasting DEXA-induced hyperalgesia after plantar incision [1, 4]: prevented long-lasting DEXA-induced hyperalgesia
- time to recovery after plantar incision [1, 4]: recovered after one week
- duration of hypersensitivity after plantar incision ([1]; DEXA 0.5 mg/kg/day s.c., no beraprost): up to one month

Molecule: C[C@@H]1C[C@H]2[C@@H]3CCC4=CC(=O)C=C[C@]4(C)[C@@]3(F)[C@@H](O)C[C@]2(C)[C@@]1(O)C(=O)CO [dexamethasone, Dexamethasone]
- hind paw allodynia at the end of the treatment period after CCI ([2]; day 6): no effect

Molecule: O=C(O)Cc1ccccc1Nc1c(Cl)cccc1Cl [diclofenac, Diclofenac]
- allodynia during the administration period after CFA [3]: reduced allodynia
- duration of the overall allodynia episode produced by CFA [3]: significantly prolonged the duration
- recovery to baseline / duration of CCI-induced allodynia [2]: prolong the duration

Molecule: NCC1(CC(=O)O)CCCCC1 [gabapentin]
- allodynia during the administration period after CFA [3]: reduced allodynia
- duration of the overall allodynia episode produced by CFA [3]: without affecting the overall duration

Molecule: CCN(CC)CC(=O)Nc1c(C)cccc1C [lidocaine, Lidocaine]
- allodynia during the administration period after CFA [3]: reduced allodynia
- duration of the overall allodynia episode produced by CFA [3]: without affecting the overall duration

Molecule: CN1CC[C@]23c4c5ccc(O)c4O[C@H]2[C@@H](O)C=C[C@H]3[C@H]1C5 [morphine]
- allodynia during the administration period after CFA [3]: reduced allodynia
- duration of the overall allodynia episode produced by CFA [3]: without affecting the overall duration

B1: S100A9: neutrophil-released alarmin protein, injected into the hind paw at 1 μg/day (protein, UniProt P31725 2-113, looked up)
Protein S100-A9: ANKAPSQMERSITTIIDTFHQYSRKEGHPDTLSKKEFRQMVEAQLATFMKKEKRNEALINDIMEDLDTNQDNQLSFEECMMLMAKLIFACHEKLHENNPRGHGHSHGKGCGK
- development of allodynia after CFA in dexamethasone-treated mice [3]: prevented the development of allodynia entirely
- duration of CFA allodynia in the absence of dexamethasone [3]: neither neutrophils nor S100A8/A9 significantly affected the duration
- CFA-induced mechanical allodynia in the absence of dexamethasone [3]: No effect

B2: S100A8: neutrophil-released alarmin protein, injected into the hind paw at 1 μg/day (protein, UniProt P27005 2-89, looked up)
Protein S100-A8: PSELEKALSNLIDVYHNYSNIQGNHHALYKNDFKKMVTTECPQFVQNINIENLFRELDINSDNAINFEEFLAMVIKVGVASHKDSHKE
- development of allodynia after CFA in dexamethasone-treated mice [3]: prevented the development of allodynia entirely
- duration of CFA allodynia in the absence of dexamethasone [3]: neither neutrophils nor S100A8/A9 significantly affected the duration
- CFA-induced mechanical allodynia in the absence of dexamethasone [3]: No effect
